Data: patent US7189691B2, “Methods and compositions for treating leukemia” (The Administrators of the Tulane Educational Fund, priority 2004, dated 2007)
In brackets after ≈: the same amount, converted by molar mass. Entries after “also recorded” stand apart in the source; their conditions may differ. Read-outs that look alike come from different tables or passages of the source.

Key:
[1] = target: T1, AF4-AF9 interaction (Homo sapiens, UniProt P42568); experiment: Enzyme-linked protein binding assay, GST-AF4(749-775) and biotinylated AF9
T1 construct: made in house; host or cells: GST-AF4 from E. coli; AF9 by coupled in vitro transcription/translation (Promega)
T1 sequence (P42568 211-568): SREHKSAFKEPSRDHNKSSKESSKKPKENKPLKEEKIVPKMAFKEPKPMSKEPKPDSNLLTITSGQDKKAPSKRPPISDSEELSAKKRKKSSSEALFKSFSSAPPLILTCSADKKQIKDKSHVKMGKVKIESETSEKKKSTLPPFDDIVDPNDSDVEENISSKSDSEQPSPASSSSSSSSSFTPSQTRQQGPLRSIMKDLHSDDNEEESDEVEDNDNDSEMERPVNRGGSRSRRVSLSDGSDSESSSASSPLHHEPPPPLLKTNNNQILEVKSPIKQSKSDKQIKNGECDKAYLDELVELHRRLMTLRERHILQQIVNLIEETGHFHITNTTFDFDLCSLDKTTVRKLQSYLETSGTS

[2] = Solubility; type: physicochemical
Method: PFWT and PFmut are soluble in phosphate buffered saline (PBS) at a concentration of 1 mg/ml and in dimethylsulfoxide (DMSO) at >50 mg/ml (data not shown). In the initial experiments, peptides were dissolved in PBS but were dissolved in DMSO for the majority of the subsequent experiments.

[3] = target: T2, AF4-AF9 protein complexes (Homo sapiens, UniProt P42568); experiment: Co-localization of GFP-AF4R1 3A- and RFP-AF9 in transfected NIH-3T3 cells; type: cell-based, mouse; conditions: overnight
T2 construct: expressed in transfected cells; host or cells: NIH-3T3
T2 sequence (P42568 1-568): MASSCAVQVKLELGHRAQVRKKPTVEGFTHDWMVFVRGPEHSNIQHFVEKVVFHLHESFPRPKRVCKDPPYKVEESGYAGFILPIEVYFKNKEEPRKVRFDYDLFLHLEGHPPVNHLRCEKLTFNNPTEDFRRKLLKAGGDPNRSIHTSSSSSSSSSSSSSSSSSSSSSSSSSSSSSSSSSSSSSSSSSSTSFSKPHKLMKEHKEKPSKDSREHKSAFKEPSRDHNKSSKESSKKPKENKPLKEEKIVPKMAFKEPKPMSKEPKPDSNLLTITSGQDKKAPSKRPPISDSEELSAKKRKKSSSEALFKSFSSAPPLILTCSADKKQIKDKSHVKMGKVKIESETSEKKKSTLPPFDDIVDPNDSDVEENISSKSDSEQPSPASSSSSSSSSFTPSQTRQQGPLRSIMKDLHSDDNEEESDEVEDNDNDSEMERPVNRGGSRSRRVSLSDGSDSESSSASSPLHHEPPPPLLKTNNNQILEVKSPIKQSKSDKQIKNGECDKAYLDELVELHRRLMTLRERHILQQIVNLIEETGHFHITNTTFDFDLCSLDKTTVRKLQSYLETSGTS
Method: To determine whether PFWT disrupts AF4-AF9 protein complexes in living cells, the properties of a fragment of mouse AF4 protein encompassing amino acids 623–811 (SEQ ID NO: 115) was used. The entire murine AF4 sequence can be obtained from the NCBI database at Accession Number AAD08668.
To test whether disruption of the AF4-AF9 interaction by PFWT results in delocalization of AF4R1 3A- from the nucleus to the cytoplasm even when co-expressed with exogenous AF9, the following assay was performed.
An enhanced green fluorescent protein (GFP) expression vector encoding mouse AF4 amino acids 623–811 SEQ ID NO: 115 (pEGFP-AF4R1 3A-), and a red fluorescent protein (RFP)-tagged AF9 expression vector were produced as described (Erfurth, F., et al., 2004, cited above; Srinivasan 2003, cited above; Hemenway, C. S., et al., 2001, cited above). NIH-3T3 cells were grown in chamber slides containing DMEM supplemented with 1-glutamine, 1% non-essential amino acids, 1% sodium pyruvate, 10% calf serum, and antibiotics. Cells were then transiently transfected with the expression vectors expressing fluorescent protein-tagged AF4 and AF9 using Lipofectamine™ 2000 reagent (Invitrogen). After 24 h the cells were treated with the peptides PFWT or PFmut at a concentration of 25 or 50 μg/ml and incubated overnight.
Cells on chamber slides were washed in PBS, fixed with 3% paraformaldehyde for 15 minutes, treated with 300 nM 4′,6-Diamidino-2-phenyindole (DAPI) nuclear counterstain for 5 minutes, and mounted with coverslips using Prolong™ media (Molecular Probes). Slides were visualized by deconvolution fluorescence microscopy with a Leica DMRXA upright microscope (Meyer Instruments) equipped with a Sensicam™ QE CCD digital camera (Cooke Corporation) and filter sets for both EGFP (exciter HQ480/20, dichroic Q495LP, and emitter HQ510/20m) and RFP (exciter 560/55x, dichroic Q595LP, and emitter HQ645/75m). Images were captured, deconvolved, and analyzed with Slidebook™ software (Intelligent Imaging Innovations).
Image analysis entailed a pixel correlation algorithm between the EGFP and RFP fluorescence channels within each image through creation of a digital binary overlay (thresholding) over arbitrary regions in both channels. This statistical measurement determines the degree in which two pixels in an image correspond to one another. If the trend in number of pixels in both EGFP and RFP channels overlap or co-localize entirely (i.e., perfect pixel set correlation), they have an assigned correlation measurement of 1.0.

[4] = tested on: B1 leukemia cells; experiment: CaspACE FITC-VAD-FMK caspase assay; type: cell-based; conditions: 50 μg peptide, 24 h / overnight
Method: To examine an additional marker of apoptosis, apoptosis assays utilizing the FITC-labeled VAD-FMK caspase substrate, CaspACE FITC-VAD-FMK (Promega) were performed according to the manufacturer's instructions. Caspase activation in individual cells was monitored by binding of the caspase substrate, followed by flow cytometry analysis. Briefly, B1 leukemia cells were suspended in RPMI 1640+10% FCS at a concentration of 5×10^5 cells/ml and treated with 50 μg PFWT, PFmut or an equal volume of DMSO. Following an overnight incubation at 37° C., the fluorescent caspase substrate CaspACE FITC-VAD-FMK marker was added to a final concentration of 10 μM and incubated for 20 minutes at 37° C. under light protective conditions. The cells were pelletted, washed, and resuspended in PBS. Cells were then analyzed by flow cytometry using a Becton Dickinson FACS Vantage flow cytometer. A 488 nm wavelength argon-ion laser beam was used for excitation, and the emission was measured using a 530 nm filter.

[5] = dimethylsulfoxide (DMSO), read-out: solubility in dimethylsulfoxide (DMSO)
[6] = phosphate buffered saline (PBS), read-out: solubility in phosphate buffered saline (PBS)

SMILES	concentration at which activity plateaus [1]	solubility [2, 5]	solubility [2, 6]	localization of GFP-AF4R1 3A- relative to RFP-AF9 ([3]; 25 μg/ml)	pixel correlation between EGFP and RFP channels ([3]; 25 μg/ml)	localization of GFP-AF4R1 3A- relative to RFP-AF9 ([3]; 50 μg/ml)	pixel correlation between EGFP and RFP channels ([3]; 50 μg/ml)	caspase activation (fluorescence intensity) [4]	AF4-AF9 interaction ([1]; 10 μg/ml, FIG. 2B)	concentration dependence of AF4-AF9 interaction ([1]; FIG. 2B)	lowest concentration showing activity ([1]; FIG. 2B)
CC[C@H](C)[C@H](NC(=O)[C@H](CCC(N)=O)NC(=O)[C@@H](N)CCCNC(=N)N)C(=O)N[C@@H](CCCCN)C(=O)N[C@@H](Cc1c[nH]c2ccccc12)C(=O)N[C@@H](Cc1ccccc1)C(=O)N[C@@H](CCC(N)=O)C(=O)N[C@@H](CC(N)=O)C(=O)N[C@@H](CCCNC(=N)N)C(=O)N[C@@H](CCCNC(=N)N)C(=O)N[C@@H](CCSC)C(=O)N[C@@H](CCCCN)C(=O)N[C@@H](Cc1c[nH]c2ccccc12)C(=O)N[C@@H](CCCCN)C(=O)N[C@@H](CCCCN)C(=O)N[C@@H](CC(C)C)C(=O)N[C@@H](Cc1c[nH]c2ccccc12)C(=O)N[C@@H](CCC(=O)O)C(=O)N[C@@H](CCCCN)C(=O)N[C@@H](CO)C(=O)N[C@@H](CC(=O)O)C(=O)N[C@@H](CC(C)C)C(=O)N[C@@H](CC(=O)O)C(=O)N[C@@H](CC(C)C)C(=O)N[C@@H](CC(C)C)C(=O)N[C@@H](CO)C(=O)N[C@@H](CCCNC(=N)N)C(=O)N[C@H](C(=O)N1CCC[C@H]1C(=O)O)C(C)C [PFmut]	40 µg/mL	> 50 mg/mL	1 mg/mL (≈ 264 µM)	no observable effect	significantly positively correlated	displaces some GFP-AF4R1 3A- from RFP-AF9 into the cytoplasm	strongly positively correlated	little caspase activation can be detected			
CC[C@H](C)[C@H](NC(=O)[C@H](CCCCN)NC(=O)[C@@H](NC(=O)[C@H](Cc1c[nH]c2ccccc12)NC(=O)[C@H](CC(C)C)NC(=O)[C@H](CCCCN)NC(=O)[C@H](CCCCN)NC(=O)[C@H](Cc1c[nH]c2ccccc12)NC(=O)[C@H](CCCCN)NC(=O)[C@H](CCSC)NC(=O)[C@H](CCCNC(=N)N)NC(=O)[C@H](CCCNC(=N)N)NC(=O)[C@H](CC(N)=O)NC(=O)[C@H](CCC(N)=O)NC(=O)[C@H](Cc1ccccc1)NC(=O)[C@H](Cc1c[nH]c2ccccc12)NC(=O)[C@H](CCCCN)NC(=O)[C@@H](NC(=O)[C@H](CCC(N)=O)NC(=O)[C@@H](N)CCCNC(=N)N)[C@@H](C)CC)C(C)C)C(=O)N[C@@H](CC(=O)O)C(=O)N[C@@H](CC(C)C)C(=O)N[C@@H](CC(=O)O)C(=O)N[C@@H](CC(C)C)C(=O)N[C@@H](CC(C)C)C(=O)N[C@@H](CO)C(=O)N[C@@H](CCCNC(=N)N)C(=O)N[C@H](C(=O)N1CCC[C@H]1C(=O)O)C(C)C [PFWT]		> 50 mg/mL	1 mg/mL (≈ 264 µM)	partially delocalizes or is displaced from RFP-AF9	negative correlation value	little or no GFP-AF4R1 3A- remains in the nucleus	negatively correlated	caspases are activated	abolished	dose dependent reduction; also recorded: displaces AF9 from AF4 in a concentration-dependant fashion	10 ng/mL
